# Read-outs that look alike come from different tables or passages of the source.
# Assays:
# mouse IL-31 gene = assay: IL-31 production inhibitory action: IL-31 gene expression by real-time PCR in antigen-stimulated CD4+ T cells from Dock8−/− AND Tg mice; format: cell-based; conditions: for antigen-induced IL-31 gene expression (in words): 2.5 μM, FIG. 2A
# CD4+ T cells = assay: T cell proliferation assay (PMA and ionomycin, 3H-thymidine incorporation); format: cell-based, mouse; conditions: for effect on non-specific T cell proliferation induced by PMA and ionomycin: FIG. 4
# Experimental: (§1) A T cell proliferation assay was performed by culturing CD4^+ T cells (5×10^4 cells) with T cell-depleted irradiated spleen cells (1×10^6 cells) in the presence of phorbol 12-myristate 13-acetate (PMA: 100 ng/ml; Sigma-Aldrich) and ionomycin (1 μg/ml; Sigma-Aldrich) for 66 hours. For the last 18 hours of culture, ^3H-thymidine (0.037 MBq) was added, and the incorporated radioactivity was measured with MicroBeta^2 (PerkinElmer, Inc., Waltham, MS).
# as §1, with “hours. Test compounds were added at various final concentrations at the start of culture.” for “hours.”, “MS). […]” for “MS).”
# IL-2 gene (Il2) = assay: IL-2 gene expression in CD4+ T cells from Dock8−/− AND Tg mice (real-time PCR); format: cell-based, mouse; conditions: 2.5 μM; FIG. 2B
# Experimental: (§2) Total RNA was isolated using ISOGEN (Nippon Gene Co., Ltd.). For amplification by PCR, RNA samples treated with RNase-free DNase I (Thermo Fisher Scientific) were reverse-transcribed with oligo(dT) primers (TFS) and SuperScript III reverse transcriptase (TFS). Real-time PCR was performed in a CFX Connect™ thermal cycler (BIO-RAD) using SYBR Green PCR Master Mix (Thermo Fisher Scientific). The expression of mouse and human target genes was normalized to expression of Hprt and PPIB genes, respectively. CFX Manager software (ver.3.1) supplied with the instrument was used for analysis.
# (§3) CD4^+ T cells (3×10^5 cells) from Dock8^−/− AND Tg mice were cultured with T cell-depleted irradiated spleen cells (5×10^6 cells) containing a test compound (2.5 μM) or a vehicle alone (0.1% DMSO), in the presence of MCC88-103 (3 μg/ml) for 24 hours.
# IL-4 gene (Il4) = assay: IL-4 gene expression in CD4+ T cells from Dock8−/− AND Tg mice (real-time PCR); format: cell-based, mouse; conditions: 2.5 μM; FIG. 2B
# Experimental: as §2, §3
# [1] = Single-dose toxicity study, oral administration; format: in vivo; conditions: 100-mg oral administration
# Experimental: From these, it is determined that compound 1 is a highly safe compound with low cytotoxicity.
# [2] = Blood concentration after oral administration; format: in vivo; conditions: 100 mg orally, C57BL/6 mice, monitored 24 hours; FIG. 5
# Experimental: After compound 1 (100 mg) was orally administered to C57BL/6 mice (n=3), its blood concentration was monitored for 24 hours.
# CAG-OVA mice = assay: Scratch behavior measurement in CAG-OVA mice injected with activated CD4+ T cells from Dock8−/− OTII Tg mice; format: in vivo; conditions: oral administration; FIG. 6
# Experimental: Mice were put into an acrylic cage (11×14×20 cm) for at least 1 hour for acclimation, and their behaviors were videotaped. Playback of the video was used for determination of the total number of scratching bouts per 2 hours. When mice scratch, they stretch their hind paw toward the itchy spot, lean their head toward the hind paw, rapidly move the paw several times, and then lower it back to the floor. A series of these movements was counted as one bout of scratching.
# To investigate whether compound 1 has an itch inhibitory action, mice expressing ovalbumin (OVA) under the control of the cytomegalovirus immediate early enhancer-chicken β-actin hybrid promoter (hereafter referred to as “CAG-OVA mice”) were used. Activated CD4^+ T cells (8.0×10^6 per mouse) from Dock8^−/− OTII Tg mice were stimulated with OVA323-339 (ISQAVHAAHAEINEAGR (SEQ ID NO: 2), 1 μg/ml) for 72 hours and intravenously injected into CAG-OVA mice, and the scratch behavior of the mice was measured 1 hour later. As a result, when the activated CD4^+ T cells were injected into CAG-OVA mice, scratch behavior was induced (see the results of the vehicle in FIG. 6).
# [3] = test system: VEGFA expression in human cancer cell line HT1080; assay: Hypoxia-induced VEGFA expression in HT1080; format: cell-based; conditions: HT1080, 1% O2; FIG. 7
# Experimental: (§4) Human sarcoma cell line HT1080 was provided by Y. Matsumoto (Kyushu University). For hypoxic induction, HT1080 (3×10^5 cells) was cultured in 1% O2 for 12 hours before assays.
# as §2
# (§5) (1) Although EPAS1 is known to control hypoxic responses through complex formation with aryl hydrocarbon receptor nuclear translocator (ARNT) (NPL 6), EPAS1-mediated Il31 promoter activation is independent of ARNT (NPL 4). FM19G11 is not a direct inhibitor of EPAS1, but is known to suppress the expression of the EPAS1 gene (Epas1) by acting on an unidentified target (NPL 7). Treatment of human cancer cell line HT1080 with […] suppressed VEGFA expression and GLUT1 expression induced by hypoxia (FIG. 7).
# [4] = test system: GLUT1 expression in human cancer cell line HT1080; assay: Hypoxia-induced GLUT1 expression in HT1080; format: cell-based; conditions: HT1080, 1% O2; FIG. 7
# Experimental: as §4, §2, §5
# EPAS1 = target: T1, EPAS1 (Mus musculus, UniProt P97481); assay: Chromatin immunoprecipitation (ChIP) assay: recruitment of EPAS1 to the IL-31 gene promoter region in CD4+ T cells; format: cell-based; conditions: antigen stimulation, 2.5 μM; FIG. 8
# T1 construct: endogenous in cells; host or cells: CD4+ T cells from Dock8-/- AND Tg mice, stimulated with MCC88-103
# T1 sequence (P97481 whole entry): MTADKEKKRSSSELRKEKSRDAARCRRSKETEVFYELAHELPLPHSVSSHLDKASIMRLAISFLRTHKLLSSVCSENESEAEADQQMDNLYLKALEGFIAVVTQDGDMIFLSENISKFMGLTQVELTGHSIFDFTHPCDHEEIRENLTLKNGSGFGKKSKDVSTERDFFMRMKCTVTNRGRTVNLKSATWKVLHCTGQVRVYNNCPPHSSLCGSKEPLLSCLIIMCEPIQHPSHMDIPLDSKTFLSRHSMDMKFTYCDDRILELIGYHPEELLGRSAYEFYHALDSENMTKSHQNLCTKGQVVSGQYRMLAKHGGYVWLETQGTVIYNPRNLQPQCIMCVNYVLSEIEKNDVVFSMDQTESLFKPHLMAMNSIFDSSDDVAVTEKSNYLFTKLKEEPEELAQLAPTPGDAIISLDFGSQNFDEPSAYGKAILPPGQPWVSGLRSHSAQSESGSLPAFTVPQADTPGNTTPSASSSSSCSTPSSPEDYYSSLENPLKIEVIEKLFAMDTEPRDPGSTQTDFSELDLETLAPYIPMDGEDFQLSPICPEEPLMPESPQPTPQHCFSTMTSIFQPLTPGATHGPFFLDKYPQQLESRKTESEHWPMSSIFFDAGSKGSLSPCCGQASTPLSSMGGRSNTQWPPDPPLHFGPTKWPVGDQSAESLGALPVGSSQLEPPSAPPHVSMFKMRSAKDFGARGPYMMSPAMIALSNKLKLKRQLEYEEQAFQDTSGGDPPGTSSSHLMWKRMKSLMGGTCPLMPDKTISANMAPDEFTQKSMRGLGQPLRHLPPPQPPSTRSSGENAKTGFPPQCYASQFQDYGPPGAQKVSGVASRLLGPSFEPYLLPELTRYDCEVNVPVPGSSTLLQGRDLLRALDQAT
# Experimental: A ChIP assay was performed using activated mouse CD4^+ T cells and immortalized MEFs. Briefly, CD4^+ T cells from Dock8^−/− AND Tg mice were stimulated with MCC88-103 in the presence of a test compound (2.5 μM) or a vehicle alone (0.1% DMSO) for 24 hours. Immortalized MEFs were co-transfected with pcDNA-human EPAS1 (2 μg) in the presence of pGL4.10 IL31 (2 μg). Six hours after transfection, the MEFs were suspended in 10% FCS-containing DMEM that contains a test compound (10 μM) or a vehicle alone (0.1% DMSO) for another 24 hours.
# The activated mouse CD4^+ cells and the transfected MEFs were treated with 0.5% formaldehyde at room temperature for 5 minutes and then neutralized with glycine at room temperature for 5 minutes. The resulting cells were washed twice with PBS containing a protease inhibitor, and then nuclei were isolated using a Magna ChIP™ HiSens kit (Millipore, Burlington, MS) according to the manufacturer's protocol. […] After centrifugation at 10,000 g at 4° C. for 10 minutes, the sheared chromatin DNA was obtained and treated with RNase and proteinase K for quantifying DNA content. […]
# Magnetic beads preincubated with rabbit polyclonal IgG (ab171870; Abcam) were used for control studies. […] Eluted DNA and input chromatin DNA were analyzed with a CFX Connect™ thermal cycler (BIO-RAD) using SYBR Green PCR Master Mix (Thermo Fisher Scientific) and the following primers. […]
# IL-31 = IL-31 production by SEB-stimulated human CD4+ T cells of AD patients (AlphaLISA); format: cell-based; conditions: SEB stimulation; FIG. 9A
# IL-2 = IL-2 production by SEB-stimulated human CD4+ T cells of AD patients (AlphaLISA); format: cell-based; conditions: SEB stimulation; FIG. 9B
# [5] = test system: human IL-31 gene promoter; assay: Luciferase reporter assay of human IL-31 gene promoter in MEFs in the presence of human EPAS1; format: cell-based; conditions: reporter construct (−1,308 to −1) in MEFs
# [6] = Mus musculus, CD4+ T, 24 h, read-out: qPCR results (IL-31 production (%)): based on the case using 0.1% DMSO taken as 100%
compound,measurement,setting,value
"CC(C)c1ccc(/C=N/Nc2ccc(C(=O)O)cc2)cc1 [Compound 1, 4-(2-(4-Isopropylbenzylidene)hydrazinyl)benzoic Acid]",antigen-induced IL-31 gene expression (in words),mouse IL-31 gene,significantly inhibited
same,activity at 0.078 µM,mouse IL-31 gene; [6],57.5%
same,activity at 0.156 µM,mouse IL-31 gene; [6],40.1%
same,activity at 0.312 µM,mouse IL-31 gene; [6],38.7%
same,activity at 0.625 µM,mouse IL-31 gene; [6],23.9%
same,activity at 1.25 µM,mouse IL-31 gene; [6],16.4%
same,effect on non-specific T cell proliferation induced by PMA and ionomycin,CD4+ T cells,neither of these compounds had an adverse effect
same,effect on non-specific T-cell proliferation response in vitro,CD4+ T cells; even when used at 50 μM,did not affect
same,effect on expression of IL-2 gene,IL-2 gene (Il2),neither of these compounds had an effect
same,effect on expression of IL-4 gene,IL-4 gene (Il4),neither of these compounds had an effect
same,body weight gain versus non-treated group,[1],did not differ from the non-treated group
same,histological or biochemical abnormalities,[1],no histological or biochemical abnormalities
same,time after oral administration within which compound was eluted into the blood,[2],≤ 12 h
same,scratch behavior (number of scratching bouts during 2 hours),CAG-OVA mice,significantly suppressed
same,VEGFA expression induced by hypoxia,[3],did not show such an effect of suppressing expression
same,GLUT1 expression induced by hypoxia,[4],did not show such an effect of suppressing expression
same,recruitment of EPAS1 to the IL-31 gene promoter region (−1336 to −1042),EPAS1,greatly reduced
same,IL-31 production by CD4+ T cells of AD patients,IL-31,reduced IL-31 production in a dose-dependent manner
same,IL-2 production by CD4+ T cells of AD patients,IL-2,not affected
same,activation of the human IL-31 gene promoter,[5],significantly suppressed
"CN(C)CCOc1ccc(/C=N/Nc2ccc(C(=O)O)cc2)cc1 [Negative control compound 1, 4-(2-(4-(2-(Dimethylamino)ethoxy)benzylidene)hydrazineyl)benzoic Acid, reference compound]",antigen-induced IL-31 gene expression (in words),mouse IL-31 gene,not inhibited
same,"IL-31 production inhibitory action (in words, discussion of Table 1)",mouse IL-31 gene; relative to compound 1,tended to notably decrease
same,effect on non-specific T cell proliferation induced by PMA and ionomycin,CD4+ T cells,neither of these compounds had an adverse effect
same,effect on expression of IL-2 gene,IL-2 gene (Il2),neither of these compounds had an effect
same,effect on expression of IL-4 gene,IL-4 gene (Il4),neither of these compounds had an effect
"Cc1ccc(C(=O)COC(=O)c2cccc(NC(=O)c3ccc([N+](=O)[O-])cc3[N+](=O)[O-])c2)cc1 [FM419G11, reference compound]",VEGFA expression induced by hypoxia,[3],suppressed
same,GLUT1 expression induced by hypoxia,[4],suppressed
"O=C(O)c1ccc(-c2nnc(-c3cc(C(F)(F)F)ccc3Cl)o2)cc1 [Compound 32, 4-(5-(2-Chloro-5-(trifluoromethyl)phenyl)-1,3,4-oxadiazol-2-yl)benzoic Acid]",activity at 0.156 µM,"mouse IL-31 gene; Mus musculus, CD4+ T, 24 h, 0.156 μM, read-out: qPCR results (IL-31 production (%)): based on the case using 0.1% DMSO taken as 100%",35.5%
same,activity at 0.312 µM,"mouse IL-31 gene; Mus musculus, CD4+ T, 24 h, 0.312 μM, read-out: qPCR results (IL-31 production (%)): based on the case using 0.1% DMSO taken as 100%",52.1%
same,activity at 0.625 µM,"mouse IL-31 gene; Mus musculus, CD4+ T, 24 h, 0.625 μM, read-out: qPCR results (IL-31 production (%)): based on the case using 0.1% DMSO taken as 100%",39.9%
same,activity at 1.25 µM,"mouse IL-31 gene; Mus musculus, CD4+ T, 24 h, 1.25 μM, read-out: qPCR results (IL-31 production (%)): based on the case using 0.1% DMSO taken as 100%",53.5%
same,activity at 10 µM,"CD4+ T cells; Mus musculus, CD4+ T, 66 h, 10 μM, read-out: Cell proliferation (%): based on the case using 0.2% DMSO taken as 100%",115%
same,activity at 20 µM,"CD4+ T cells; Mus musculus, CD4+ T, 66 h, 20 μM, read-out: Cell proliferation (%): based on the case using 0.2% DMSO taken as 100%",92.7%
same,activity at 40 µM,"CD4+ T cells; Mus musculus, CD4+ T, 66 h, 40 μM, read-out: Cell proliferation (%): based on the case using 0.2% DMSO taken as 100%",91.8%

# — patent publication US20240139214A1, “AGENT FOR SUPPRESSING IL-31 PRODUCTION AND PHARMACEUTICAL COMPOSITION CONTAINING THE SAME” (KYUSHU UNIVERSITY, NATIONAL UNIVERSITY CORPORATION, priority 2021, published 2024)
